Data published in the NIST ThermoML archive (doi:10.1016/j.tca.2011.06.003).
± gives the expanded uncertainty stated by the source.

Conditions: 298.15 K, 101.33 kPa, Liquid; for viscosity: Capillary tube (Ostwald / Ubbelohde) method; for speed of sound: Sing-around technique in a fixed-path interferometer; for mass density: Vibrating tube method

Structure (SMILES)	viscosity	speed of sound	mass density
CC(C)CO [2-methyl-1-propanol]	3.307 ± 0.02 mPa·s	1188.8 ± 0.8 m/s	798.104 ± 0.14 kg/m3
CC(C)O [propan-2-ol]	2.063 ± 0.013 mPa·s	1140.4 ± 0.8 m/s	781.482 ± 0.15 kg/m3
NCCNCCN [di(2-aminoethyl)amine]	5.627 ± 0.033 mPa·s	1670.5 ± 1 m/s	945.548 ± 0.099 kg/m3
CCCCO [butan-1-ol]	2.565 ± 0.016 mPa·s	1241.1 ± 0.8 m/s	805.953 ± 0.14 kg/m3
